What was measured:
LMP2 [1] = target: T1, LMP2 (Mus musculus, UniProt P28076); experiment: Proteasome activities in tissue of treated mice, fluorogenic substrates; assay type: in vivo; conditions: Tg2576 mice, p-value<0.05, n=3
T1 construct: proteasome activities in brain, spleen, and liver tissue collected from mice treated with vehicle (control), YU102 (10 mg/kg); from tissue; host or cells: brain, spleen and liver tissue of Tg2576 mice
Procedure: With reference to FIG. 1D, proteasome activities in brain, spleen, and liver tissue collected from mice treated with vehicle (control), YU102 (10 mg/kg), or YU102 epimer (10 mg/kg) were measured using fluorogenic substrates.

[2] = test system: APP transgenic mouse model of AD (Tg2576); experiment: Morris water maze test in Tg2576 mice; assay type: in vivo
Procedure: (§1) FIG. 1A includes a schematic illustration showing the experimental schedule for a behavior test to assess cognitive impairment following administration of YU102 or YU102 epimer, as compared to control. YU102 is an inhibitor of the immunoproteasome subunit LMP2.
With reference to FIG. 1B, cognitive function in Tg2576 mice was evaluated by the Morris water maze test, and escape latency time (left) and escape distance of the mice (right) was assessed. Statistical analyses of escape latency and escape distance were performed via two-way ANOVA.

[3] = test system: LPS-stimulated BV-2 cells; experiment: Cytokine and chemokine protein array in LPS-stimulated BV-2 cells; assay type: cell-based; conditions: 3 μM with LPS (1 μg/mL)
Procedure: With reference to FIG. 2, cytokine production was assessed in LPS-stimulated BV-2 cells. Cytokine and chemokine protein array blots were obtained from BV-2 cells treated with vehicle, LPS (1 μg/mL) alone, and YU102 (3 μM) or ONX0914 (3 μM) with LPS (1 μg/mL). The signal intensity of each cytokine or chemokine was expressed relative to the mean of the intensity of the corresponding spots from vehicle control sample. The bar graph depicts the fold change of each cytokine or chemokine (mean).

LMP2 [4] = experiment: LMP2 inhibition (figure legend); assay type: biochemical
[5] = test system: APP transgenic mouse model of AD (Tg2576); experiment: Passive avoidance test in Tg2576 mice; assay type: in vivo; conditions: Student's t-test, p-value<0.05, n=8
Procedure: as §1
(§2) With reference to FIG. 1C, upon the completion of the Morris water maze test, Tg2576 mice were evaluated in the probe trial (left) and passive avoidance test (right). Statistical analyses of probe trial and passive avoidance were performed via Student's t-test.

[6] = test system: APP transgenic mouse model of AD (Tg2576); experiment: Probe trial in Tg2576 mice; assay type: in vivo; conditions: Student's t-test, p-value<0.05, n=8
Procedure: as §1, §2

CC(=O)NCC(=O)N1CCC[C@H]1C(=O)N[C@@H](Cc1ccccc1)C(=O)N[C@@H](CC(C)C)C(=O)[C@@]1(C)CO1 [YU102]
LMP2 inhibitory activity in spleen and liver tissues, difference between YU102-treated and YU102 epi-treated group (LMP2 [1]; 10 mg/kg each): statistically significant | LMP2 inhibitory activity in spleen and liver tissues, difference between control and treated group (LMP2 [1]; 10 mg/kg): statistically significant | cognitive deficits ([2]; APPsw (Tg2576) mice, FIGS. 1A-1D): amelioration of cognitive deficits | escape distance, difference between control and treated mice ([2]; Tg2576 mice, days 3-5, two-way ANOVA, p-value<0.05, n=8): statistically significant | cytokine production [3]: suppression of cytokine production | LMP2 inhibition (LMP2 [4]): selective LMP2 inhibitor | step through latency, difference between control and treated mice [5]: statistically significant | time spent in target quadrant, difference between control and treated mice [6]: statistically significant

CC(=O)NCC(=O)N1CCC[C@H]1C(=O)N[C@@H](Cc1ccccc1)C(=O)N[C@@H](CC(C)C)C(=O)[C@]1(C)CO1 [YU102 epi]
LMP2 inhibition (LMP2 [4]): does not inhibit LMP2
